{"source": "paper PMC11864979", "about": "“First-in-class ultralong-target-residence-time p38α inhibitors as a mitosis-targeted therapy for colorectal cancer” (Nature Cancer, 2025)", "assay_in_all_cases": "selectivity profiling in a panel of 340 wild-type kinases (Reaction Biology Europe)", "type_in_all_cases": "binding", "key": {"340 wild-type kinases [1]": {"molecular_target": "T1, 340 wild-type kinases (Homo sapiens, UniProt Q05513)", "T1 construct": "purchased Reaction Biology Europe", "T1 sequence (Q05513 184-592)": "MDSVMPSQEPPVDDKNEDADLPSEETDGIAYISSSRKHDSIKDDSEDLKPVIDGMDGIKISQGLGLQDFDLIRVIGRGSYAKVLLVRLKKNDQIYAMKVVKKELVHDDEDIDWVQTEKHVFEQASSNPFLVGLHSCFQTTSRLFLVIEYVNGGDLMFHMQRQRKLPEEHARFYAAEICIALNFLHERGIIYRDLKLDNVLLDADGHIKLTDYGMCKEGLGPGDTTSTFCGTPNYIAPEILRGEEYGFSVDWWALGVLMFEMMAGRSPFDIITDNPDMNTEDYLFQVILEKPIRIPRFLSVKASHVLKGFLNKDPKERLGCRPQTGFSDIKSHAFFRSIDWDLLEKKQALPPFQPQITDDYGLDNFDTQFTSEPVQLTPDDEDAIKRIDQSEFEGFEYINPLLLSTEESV", "details": "PKMzeta, read-out: residual activity"}, "340 wild-type kinases [2]": {"molecular_target": "T2, 340 wild-type kinases (Homo sapiens, UniProt Q9H4B4)", "T2 construct": "purchased Reaction Biology Europe", "T2 sequence (Q9H4B4 whole entry)": "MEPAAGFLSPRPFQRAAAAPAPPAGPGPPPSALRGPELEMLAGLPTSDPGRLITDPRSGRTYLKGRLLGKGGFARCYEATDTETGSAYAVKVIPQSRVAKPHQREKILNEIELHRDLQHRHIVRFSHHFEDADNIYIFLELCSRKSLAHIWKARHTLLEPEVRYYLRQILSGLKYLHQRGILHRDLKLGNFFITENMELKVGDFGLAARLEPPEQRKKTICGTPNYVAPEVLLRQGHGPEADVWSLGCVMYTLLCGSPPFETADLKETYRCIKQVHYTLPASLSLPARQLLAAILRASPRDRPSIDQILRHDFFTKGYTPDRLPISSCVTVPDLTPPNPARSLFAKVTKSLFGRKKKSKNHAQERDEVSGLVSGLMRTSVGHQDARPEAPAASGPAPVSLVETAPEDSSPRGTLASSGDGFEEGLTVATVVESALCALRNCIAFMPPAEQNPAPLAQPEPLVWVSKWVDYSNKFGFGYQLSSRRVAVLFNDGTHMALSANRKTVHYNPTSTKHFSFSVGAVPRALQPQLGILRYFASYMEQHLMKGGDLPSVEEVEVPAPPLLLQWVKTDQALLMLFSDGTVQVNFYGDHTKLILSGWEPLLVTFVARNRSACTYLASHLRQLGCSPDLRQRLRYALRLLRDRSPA"}, "340 wild-type kinases [3]": {"molecular_target": "T3, 340 wild-type kinases (Homo sapiens, UniProt Q9BQI3)", "T3 construct": "purchased Reaction Biology Europe", "T3 sequence (Q9BQI3 whole entry)": "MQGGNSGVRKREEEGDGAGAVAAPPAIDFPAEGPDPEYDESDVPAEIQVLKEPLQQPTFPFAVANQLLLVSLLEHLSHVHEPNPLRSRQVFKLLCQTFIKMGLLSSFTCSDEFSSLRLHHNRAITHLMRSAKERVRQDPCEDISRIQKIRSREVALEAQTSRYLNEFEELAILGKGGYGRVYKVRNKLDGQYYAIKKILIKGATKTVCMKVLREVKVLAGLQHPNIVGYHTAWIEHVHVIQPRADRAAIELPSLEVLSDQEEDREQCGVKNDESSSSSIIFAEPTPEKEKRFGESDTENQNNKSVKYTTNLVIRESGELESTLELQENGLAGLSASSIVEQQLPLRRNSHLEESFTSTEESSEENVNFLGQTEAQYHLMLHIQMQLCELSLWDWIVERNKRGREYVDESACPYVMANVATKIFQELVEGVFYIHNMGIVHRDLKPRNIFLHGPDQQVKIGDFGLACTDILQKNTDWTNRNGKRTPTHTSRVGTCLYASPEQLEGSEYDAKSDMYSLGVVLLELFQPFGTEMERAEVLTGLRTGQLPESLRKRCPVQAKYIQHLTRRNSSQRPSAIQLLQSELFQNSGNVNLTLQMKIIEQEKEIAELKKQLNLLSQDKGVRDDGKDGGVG"}, "340 wild-type kinases [4]": {"molecular_target": "T4, 340 wild-type kinases (Homo sapiens, UniProt P09769)", "T4 construct": "purchased Reaction Biology Europe", "T4 sequence (P09769 whole entry)": "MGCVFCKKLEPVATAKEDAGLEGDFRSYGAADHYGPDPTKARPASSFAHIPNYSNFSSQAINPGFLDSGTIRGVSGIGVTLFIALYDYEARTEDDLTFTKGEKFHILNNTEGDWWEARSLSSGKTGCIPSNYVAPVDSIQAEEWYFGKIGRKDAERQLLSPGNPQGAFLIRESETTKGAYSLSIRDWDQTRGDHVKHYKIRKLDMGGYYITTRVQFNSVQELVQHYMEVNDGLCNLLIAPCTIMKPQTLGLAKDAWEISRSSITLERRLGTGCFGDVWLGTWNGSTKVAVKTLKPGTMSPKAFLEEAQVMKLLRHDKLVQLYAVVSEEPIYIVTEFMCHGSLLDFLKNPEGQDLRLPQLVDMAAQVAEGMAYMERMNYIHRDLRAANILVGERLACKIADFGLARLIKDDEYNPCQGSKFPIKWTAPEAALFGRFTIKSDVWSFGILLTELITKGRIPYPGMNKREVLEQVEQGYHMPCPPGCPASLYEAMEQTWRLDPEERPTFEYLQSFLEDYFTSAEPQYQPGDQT"}, "340 wild-type kinases [5]": {"molecular_target": "T5, 340 wild-type kinases (Homo sapiens, UniProt P54753)", "T5 construct": "purchased Reaction Biology Europe", "T5 sequence (P54753 34-998)": "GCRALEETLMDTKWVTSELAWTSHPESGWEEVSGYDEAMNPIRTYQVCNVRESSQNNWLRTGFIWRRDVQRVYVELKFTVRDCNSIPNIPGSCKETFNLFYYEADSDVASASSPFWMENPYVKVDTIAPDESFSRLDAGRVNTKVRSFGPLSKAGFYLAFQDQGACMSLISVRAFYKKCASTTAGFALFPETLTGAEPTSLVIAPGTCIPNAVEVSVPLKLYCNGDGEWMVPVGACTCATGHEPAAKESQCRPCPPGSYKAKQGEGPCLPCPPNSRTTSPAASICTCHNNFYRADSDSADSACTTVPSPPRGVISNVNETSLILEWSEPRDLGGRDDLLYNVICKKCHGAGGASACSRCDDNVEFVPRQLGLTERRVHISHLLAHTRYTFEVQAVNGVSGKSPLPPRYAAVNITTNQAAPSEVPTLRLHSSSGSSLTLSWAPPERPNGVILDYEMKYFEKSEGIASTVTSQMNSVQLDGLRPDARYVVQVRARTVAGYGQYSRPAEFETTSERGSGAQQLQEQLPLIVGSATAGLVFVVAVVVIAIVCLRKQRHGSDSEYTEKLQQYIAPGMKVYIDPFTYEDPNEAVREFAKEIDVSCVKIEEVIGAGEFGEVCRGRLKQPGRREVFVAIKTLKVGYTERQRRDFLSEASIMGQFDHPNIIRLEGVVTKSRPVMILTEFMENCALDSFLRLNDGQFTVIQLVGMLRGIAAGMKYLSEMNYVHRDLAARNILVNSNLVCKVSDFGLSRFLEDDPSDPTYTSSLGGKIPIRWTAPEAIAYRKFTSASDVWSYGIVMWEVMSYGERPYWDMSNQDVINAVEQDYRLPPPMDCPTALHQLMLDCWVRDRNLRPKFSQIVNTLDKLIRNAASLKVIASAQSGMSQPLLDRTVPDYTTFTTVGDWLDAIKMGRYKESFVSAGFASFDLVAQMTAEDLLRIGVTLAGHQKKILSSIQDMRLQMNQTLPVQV"}, "340 wild-type kinases [6]": {"molecular_target": "T6, 340 wild-type kinases (Homo sapiens, UniProt P31751)", "T6 construct": "purchased Reaction Biology Europe", "T6 sequence (P31751 whole entry)": "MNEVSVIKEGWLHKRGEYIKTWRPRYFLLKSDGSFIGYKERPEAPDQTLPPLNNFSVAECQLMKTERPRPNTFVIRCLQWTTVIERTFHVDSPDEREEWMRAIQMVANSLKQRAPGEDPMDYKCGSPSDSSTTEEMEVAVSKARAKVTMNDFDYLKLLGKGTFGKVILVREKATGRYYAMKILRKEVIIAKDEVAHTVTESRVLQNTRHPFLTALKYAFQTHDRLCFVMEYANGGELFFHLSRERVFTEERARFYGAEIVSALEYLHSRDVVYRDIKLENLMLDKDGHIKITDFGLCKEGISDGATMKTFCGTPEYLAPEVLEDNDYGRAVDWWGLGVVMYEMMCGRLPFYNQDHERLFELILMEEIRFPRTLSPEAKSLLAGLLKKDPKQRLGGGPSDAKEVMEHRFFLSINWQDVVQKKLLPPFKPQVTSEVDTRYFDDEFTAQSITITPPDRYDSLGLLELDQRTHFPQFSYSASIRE"}, "340 wild-type kinases [7]": {"molecular_target": "T7, 340 wild-type kinases (Homo sapiens, UniProt P17612)", "T7 construct": "purchased Reaction Biology Europe"}, "340 wild-type kinases [8]": {"molecular_target": "T8, 340 wild-type kinases (Homo sapiens, UniProt Q5TCX8)", "T8 construct": "purchased Reaction Biology Europe", "T8 sequence (Q5TCX8 whole entry)": "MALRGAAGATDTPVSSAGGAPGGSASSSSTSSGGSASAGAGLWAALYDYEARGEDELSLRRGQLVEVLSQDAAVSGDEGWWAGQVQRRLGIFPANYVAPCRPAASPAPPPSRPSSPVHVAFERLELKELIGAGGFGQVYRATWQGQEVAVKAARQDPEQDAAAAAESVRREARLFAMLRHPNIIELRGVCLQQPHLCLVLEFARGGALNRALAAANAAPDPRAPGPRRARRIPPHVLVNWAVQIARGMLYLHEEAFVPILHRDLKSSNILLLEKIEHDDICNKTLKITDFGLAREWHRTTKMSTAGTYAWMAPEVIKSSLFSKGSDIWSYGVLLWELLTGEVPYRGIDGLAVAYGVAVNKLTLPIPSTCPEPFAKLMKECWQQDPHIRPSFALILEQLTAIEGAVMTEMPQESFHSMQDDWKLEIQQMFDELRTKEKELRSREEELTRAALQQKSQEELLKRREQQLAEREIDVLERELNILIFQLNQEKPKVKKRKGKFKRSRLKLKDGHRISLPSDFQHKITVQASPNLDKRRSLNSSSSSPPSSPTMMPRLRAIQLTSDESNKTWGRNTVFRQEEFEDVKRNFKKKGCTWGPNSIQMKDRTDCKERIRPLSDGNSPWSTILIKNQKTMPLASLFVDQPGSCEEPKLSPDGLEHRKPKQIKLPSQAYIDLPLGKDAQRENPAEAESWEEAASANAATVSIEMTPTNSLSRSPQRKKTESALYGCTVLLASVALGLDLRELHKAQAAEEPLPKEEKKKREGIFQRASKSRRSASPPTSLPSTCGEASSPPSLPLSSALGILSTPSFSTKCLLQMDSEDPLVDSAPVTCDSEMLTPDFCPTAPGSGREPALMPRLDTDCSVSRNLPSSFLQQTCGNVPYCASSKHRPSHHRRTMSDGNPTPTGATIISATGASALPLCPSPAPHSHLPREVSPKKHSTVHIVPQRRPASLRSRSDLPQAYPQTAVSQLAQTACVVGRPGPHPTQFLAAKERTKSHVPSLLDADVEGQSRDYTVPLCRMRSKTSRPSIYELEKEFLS"}, "340 wild-type kinases [9]": {"molecular_target": "T9, 340 wild-type kinases (Homo sapiens, UniProt Q15831)", "T9 construct": "purchased Reaction Biology Europe", "T9 sequence (Q15831 1-433)": "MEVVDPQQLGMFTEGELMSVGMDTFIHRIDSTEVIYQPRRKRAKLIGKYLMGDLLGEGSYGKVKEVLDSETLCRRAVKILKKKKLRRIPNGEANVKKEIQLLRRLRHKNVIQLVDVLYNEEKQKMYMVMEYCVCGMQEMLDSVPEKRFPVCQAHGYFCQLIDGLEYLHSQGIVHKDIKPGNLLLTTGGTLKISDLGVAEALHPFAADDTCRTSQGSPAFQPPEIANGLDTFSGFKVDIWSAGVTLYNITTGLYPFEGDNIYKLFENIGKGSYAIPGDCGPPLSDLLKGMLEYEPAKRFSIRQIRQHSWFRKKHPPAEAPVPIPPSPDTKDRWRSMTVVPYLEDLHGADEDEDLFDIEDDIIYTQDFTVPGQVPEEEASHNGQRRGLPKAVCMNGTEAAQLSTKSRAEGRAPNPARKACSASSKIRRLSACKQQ"}}, "note": "Like-named read-outs stand apart in the source and are kept apart here."}
{"molecule": "CNC(=O)c1ccc2c(c1)C(=O)c1ccc(Nc3ccc(F)c(NC(=O)C4CC4)c3)cc1CC2", "note": "[Compound 2015]", "values": [{"measurement": "remaining activity at 0.2 µM", "setting": "340 wild-type kinases [1]; 0.2 µM", "result": 106, "unit": "%"}, {"measurement": "remaining activity at 1 µM", "setting": "340 wild-type kinases [1]; 1 µM", "result": 102, "unit": "%"}, {"measurement": "remaining activity at 0.2 µM", "setting": "340 wild-type kinases [2]; 0.2 µM 2015, read-out: PLK3 residual activity", "result": 101, "unit": "%"}, {"measurement": "remaining activity at 1 µM", "setting": "340 wild-type kinases [2]; 1 µM 2015, read-out: PLK3 residual activity", "result": 134, "unit": "%"}, {"measurement": "remaining activity at 0.2 µM", "setting": "340 wild-type kinases [2]; PLK3, 0.2 µM, read-out: residual activity", "result": 101, "unit": "%"}, {"measurement": "remaining activity at 1 µM", "setting": "340 wild-type kinases [2]; PLK3, 1 µM, read-out: residual activity", "result": 134, "unit": "%"}, {"measurement": "remaining activity at 0.2 µM", "setting": "340 wild-type kinases [3]; 0.2 µM 2015, read-out: HRI residual activity", "result": 75, "unit": "%"}, {"measurement": "remaining activity at 1 µM", "setting": "340 wild-type kinases [3]; 1 µM 2015, read-out: HRI residual activity", "result": 93.7, "unit": "%"}, {"measurement": "remaining activity at 0.2 µM", "setting": "340 wild-type kinases [3]; HRI, 0.2 µM, read-out: residual activity", "result": 75, "unit": "%"}, {"measurement": "remaining activity at 1 µM", "setting": "340 wild-type kinases [3]; HRI, 1 µM, read-out: residual activity", "result": 93.7, "unit": "%"}, {"measurement": "remaining activity at 0.2 µM", "setting": "340 wild-type kinases [4]; 0.2 µM 2015, read-out: FGR residual activity", "result": 101, "unit": "%"}, {"measurement": "remaining activity at 1 µM", "setting": "340 wild-type kinases [4]; 1 µM 2015, read-out: FGR residual activity", "result": 102, "unit": "%"}, {"measurement": "remaining activity at 0.2 µM", "setting": "340 wild-type kinases [4]; FGR, 0.2 µM, read-out: residual activity", "result": 101, "unit": "%"}, {"measurement": "remaining activity at 1 µM", "setting": "340 wild-type kinases [4]; FGR, 1 µM, read-out: residual activity", "result": 102, "unit": "%"}, {"measurement": "remaining activity at 0.2 µM", "setting": "340 wild-type kinases [5]; 0.2 µM 2015, read-out: EPHB3 residual activity", "result": 97.2, "unit": "%"}, {"measurement": "remaining activity at 1 µM", "setting": "340 wild-type kinases [5]; 1 µM 2015, read-out: EPHB3 residual activity", "result": 96.8, "unit": "%"}, {"measurement": "remaining activity at 0.2 µM", "setting": "340 wild-type kinases [5]; EPHB3, 0.2 µM, read-out: residual activity", "result": 97.2, "unit": "%"}, {"measurement": "remaining activity at 1 µM", "setting": "340 wild-type kinases [5]; EPHB3, 1 µM, read-out: residual activity", "result": 96.8, "unit": "%"}, {"measurement": "remaining activity at 0.2 µM", "setting": "340 wild-type kinases [6]; 0.2 µM 2015, read-out: AKT2 residual activity", "result": 64.5, "unit": "%"}, {"measurement": "remaining activity at 1 µM", "setting": "340 wild-type kinases [6]; 1 µM 2015, read-out: AKT2 residual activity", "result": 93, "unit": "%"}, {"measurement": "remaining activity at 0.2 µM", "setting": "340 wild-type kinases [6]; AKT2, 0.2 µM, read-out: residual activity", "result": 64.5, "unit": "%"}, {"measurement": "remaining activity at 1 µM", "setting": "340 wild-type kinases [6]; AKT2, 1 µM, read-out: residual activity", "result": 93, "unit": "%"}, {"measurement": "remaining activity at 0.2 µM", "setting": "340 wild-type kinases [7]; 0.2 µM 2015, read-out: PKA residual activity", "result": 124, "unit": "%"}, {"measurement": "remaining activity at 1 µM", "setting": "340 wild-type kinases [7]; 1 µM 2015, read-out: PKA residual activity", "result": 97.7, "unit": "%"}, {"measurement": "remaining activity at 0.2 µM", "setting": "340 wild-type kinases [7]; PKA, 0.2 µM, read-out: residual activity", "result": 124, "unit": "%"}, {"measurement": "remaining activity at 1 µM", "setting": "340 wild-type kinases [7]; PKA, 1 µM, read-out: residual activity", "result": 97.8, "unit": "%"}, {"measurement": "remaining activity at 0.2 µM", "setting": "340 wild-type kinases [8]; 0.2 µM 2015, read-out: MLK4 residual activity", "result": 96.4, "unit": "%"}, {"measurement": "remaining activity at 1 µM", "setting": "340 wild-type kinases [8]; 1 µM 2015, read-out: MLK4 residual activity", "result": 87.1, "unit": "%"}, {"measurement": "remaining activity at 0.2 µM", "setting": "340 wild-type kinases [8]; MLK4, 0.2 µM, read-out: residual activity", "result": 96.4, "unit": "%"}, {"measurement": "remaining activity at 1 µM", "setting": "340 wild-type kinases [8]; MLK4, 1 µM, read-out: residual activity", "result": 87.1, "unit": "%"}, {"measurement": "remaining activity at 0.2 µM", "setting": "340 wild-type kinases [9]; 0.2 µM 2015, read-out: LKB1/MO25a/STRADa residual activity", "result": 115, "unit": "%"}, {"measurement": "remaining activity at 1 µM", "setting": "340 wild-type kinases [9]; 1 µM 2015, read-out: LKB1/MO25a/STRADa residual activity", "result": 91.6, "unit": "%"}, {"measurement": "remaining activity at 0.2 µM", "setting": "340 wild-type kinases [9]; LKB1/MO25a/STRADa, 0.2 µM, read-out: residual activity", "result": 115, "unit": "%"}, {"measurement": "remaining activity at 1 µM", "setting": "340 wild-type kinases [9]; LKB1/MO25a/STRADa, 1 µM, read-out: residual activity", "result": 91.6, "unit": "%"}]}
